Columns and labels:
[1] = system: sugar beet elite line T807 (mutagenized, M2 plants); assay: glyphosate treatment of surviving M2 plants of mutagenized sugar beet (screening and selection for resistance); format: in vivo, Beta vulgaris (sugar beet); conditions: 600 g/ha glyphosate acid equivalent
From the text: 6 kg seeds of sugar beet elite line T807 (3BT1760, M0 population) were mutagenized with 0.5% EMS and 0.3% and 0.5%, respectively ENU, and subsequently drilled for steck production. Stecks were replanted for seed production occupying an area of 5.8 ha. M1 population sizes were 75,000 seed producing plants for EMS and 19,000 plants for ENU mutagenized seeds. The following M2 seed amounts (values given for purified seed) has been obtained: 240 kg for 0.5% EMS (idents A and B), 548 kg for 0.3% ENU (idents C and D), and 256 kg 0.5% ENU (idents E and F).
176 kg of idents A and B and 75 kg of idents C, D, E and F were sown on an approximately 15 ha spanning field site. Approximately 1 month after sowing, the entire field was sprayed with 0.88 I/ha ROUNDUP® MAX (680 g/kg glyphosate acid equivalent). Approximately 6 weeks later, plants surviving the glyphosate treatment were collected in the field, transplanted to pots and further cultivated in the greenhouses. Surviving plants were treated with 600 g/ha glyphosate acid equivalent about 2 months later.
In order to identify the causative mutation behind the observed herbicide resistance sequencing analyses have been performed. Inter alia, the exon 2 of the epsp synthase gene in sugar beet was PCR amplified (primers BvEPSPS_Ex_2_for, 5′-[…]-3′ (SEQ ID NO: 13), and BvEPSPS_Ex_2_rev, 5′-[…]-3′ (SEQ ID NO: 14)) and Sanger sequenced (primers BvEPSPS_Ex2_Seqf, 5′-[…]-3′ (SEQ ID NO: 15), and BvEPSPS_Ex2_Seqr, 5′-[…]-3′ (SEQ ID NO: 16)) in all 172 surviving plants. The sugar beet plant with identifier 6MS1008-109 carried a C to T mutation that causes the P179S amino acid change in BvEPSPS. This artificial SNP has been independently confirmed by KASP marker assay using an in silico developed KASP-marker s1txepss02 (SEQ ID NOs: 17-19): […]

[2] = acid form, at 25° C.; cited from earlier work

O=C(O)CNCP(=O)(O)O [glyphosate, N-phosphonomethylglycine]
resistance conferred by heterozygous P179S mutation in BvEPSPS ([1]; approx. 50% of standard field treatment level, strong indication from screening and selection): complete resistance
plants that survived the treatment ([1]; potted greenhouse plants that had survived the field spray with ROUNDUP MAX): 172 plants
herbicide damage on surviving plants ([1]; the 172 surviving plants in the greenhouse): without any signs of herbicide damage
solubility in water [2]: 1.16 % by weight
